Laboratory results published in patent US20260262643A1, “HERBICIDAL BENZOXAZINES” (FMC CORPORATION, priority 2022, published 2026).

How the values were obtained:
kochia [1] = experiment: Test C preemergence; format: in vivo, Bassia scoparia
Outline: (§1)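 Greenhouse herbicide screen, 10-day duration. Test chemicals in solvent/surfactant blend were sprayed onto soil at sowing (pre) or onto 2–10 cm seedlings at one to two leaves (post); injury scored visually against controls, 0 no effect to 100 complete control.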

rice = experiment: Test D flooded paddy test; format: in vivo, Oryza sativa; conditions: 250 g ai/ha, applied to paddy water, visual rating after 13 to 14 days, scale 0 to 100 (0 no effect, 100 complete control)
Outline: (§2)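 Plants grown to the 2-leaf stage; pots flooded to 3 cm above soil at treatment and held at that depth throughout. Test compounds applied directly to the paddy water. After 13 to 14 days in a greenhouse, response was rated visually versus controls on a 0 (no effect) to 100 (complete control) scale.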

corn [2] = experiment: Test C postemergence; format: in vivo, Zea mays; conditions: 10 days, 0 to 100 scale (0 no effect, 100 complete control)
Outline: as §1

horseweed = experiment: Test C postemergence; format: in vivo, Erigeron canadensis; conditions: 500 g ai/ha, postemergence, 10 days, 0 to 100 scale (0 no effect, 100 complete control)
Outline: as §1

wheat [3] = experiment: Test C preemergence; format: in vivo, Triticum aestivum
Outline: as §1

ragweed [4] = experiment: Test C preemergence; format: in vivo, Ambrosia artemisiifolia
Outline: as §1

blackgrass [5] = experiment: Test C preemergence; format: in vivo, Alopecurus myosuroides
Outline: as §1

ryegrass, Italian [6] = experiment: Test C postemergence; format: in vivo, Lolium multiflorum; conditions: Postemergence, 125 g ai/ha; 0 to 100 scale (0 no effect, 100 complete control), 10 days
Outline: as §1

oat, wild [7] = experiment: Test C postemergence; format: in vivo, Avena fatua; conditions: 10 days, 0 to 100 scale (0 no effect, 100 complete control)
Outline: as §1

corn [8] = experiment: Test C preemergence; format: in vivo, Zea mays
Outline: as §1

barnyardgrass [9] = experiment: Test D flooded paddy test; format: in vivo, Echinochloa crus-galli; conditions: 250 g ai/ha, applied to paddy water, visual rating after 13 to 14 days, scale 0 to 100 (0 no effect, 100 complete control)
Outline: as §2

ragweed [10] = experiment: Test C postemergence; format: in vivo, Ambrosia artemisiifolia; conditions: Postemergence, 125 g ai/ha; 0 to 100 scale (0 no effect, 100 complete control), 10 days
Outline: as §1

soybean [11] = experiment: Test C preemergence; format: in vivo, Glycine max
Outline: as §1

kochia [12] = experiment: Test C postemergence; format: in vivo, Bassia scoparia; conditions: 10 days, 0 to 100 scale (0 no effect, 100 complete control)
Outline: as §1

barnyardgrass [13] = experiment: Test C preemergence; format: in vivo, Echinochloa crusgalli
Outline: as §1

galium = experiment: Test C postemergence; format: in vivo, Galium aparine; conditions: 10 days, 0 to 100 scale (0 no effect, 100 complete control)
Outline: as §1

sedge, umbrella = experiment: Test D flooded paddy test; format: in vivo, Cyperus difformis; conditions: 250 g ai/ha, applied to paddy water, visual rating after 13 to 14 days, scale 0 to 100 (0 no effect, 100 complete control)
Outline: as §2

green foxtail [14] = experiment: Test C postemergence; format: in vivo, Setaria viridis; conditions: 10 days, 0 to 100 scale (0 no effect, 100 complete control)
Outline: as §1

ryegrass, Italian [15] = experiment: Test C preemergence; format: in vivo, Lolium multiflorum
Outline: as §1

pigweed, palmer [16] = experiment: Test C postemergence; format: in vivo, Amaranthus palmeri; conditions: 10 days, 0 to 100 scale (0 no effect, 100 complete control)
Outline: as §1

pigweed, palmer [17] = experiment: Test C preemergence; format: in vivo, Amaranthus palmeri
Outline: as §1

soybean [18] = experiment: Test C postemergence; format: in vivo, Glycine max; conditions: Postemergence, 125 g ai/ha; 0 to 100 scale (0 no effect, 100 complete control), 10 days
Outline: as §1

green foxtail [19] = experiment: Test C preemergence; format: in vivo, Setaria viridis
Outline: as §1

blackgrass [20] = experiment: Test C postemergence; format: in vivo, Alopecurus myosuroides; conditions: 10 days, 0 to 100 scale (0 no effect, 100 complete control)
Outline: as §1

ducksalad = experiment: Test D flooded paddy test; format: in vivo, Heteranthera limosa; conditions: 250 g ai/ha, applied to paddy water, visual rating after 13 to 14 days, scale 0 to 100 (0 no effect, 100 complete control)
Outline: as §2

barnyardgrass [21] = experiment: Test C postemergence; format: in vivo, Echinochloa crusgalli; conditions: 10 days, 0 to 100 scale (0 no effect, 100 complete control)
Outline: as §1

wheat [22] = experiment: Test C postemergence; format: in vivo, Triticum aestivum; conditions: Postemergence, 125 g ai/ha; 0 to 100 scale (0 no effect, 100 complete control), 10 days
Outline: as §1

oat, wild [23] = experiment: Test C preemergence; format: in vivo, Avena fatua
Outline: as §1

[24] = 500 g ai/ha, preemergence, 0 to 100 scale (0 no effect, 100 complete control)
[25] = Preemergence, 125 g ai/ha, 0 to 100 scale, 0 no effect, 100 complete control

Cc1ccc(-n2cnc(CS(C)(=N)=O)n2)cc1C(=O)N1C[C@H](C)Oc2c(Cl)cccc21 (some centres unmarked) [Compound 403]
70: Plant response rating, Ragweed (ragweed [10]) | Barnyardgrass plant response rating (barnyardgrass [13]; [24]) | Plant response rating, Barnyardgrass (barnyardgrass [21]; 500 g ai/ha, postemergence)
20: Plant response rating, Corn (corn [2]; Postemergence, 125 g ai/ha) | Plant response rating, Blackgrass (blackgrass [20]; Postemergence, 125 g ai/ha) | Plant response rating, Wheat (wheat [22])
30: Plant response rating, Ragweed (ragweed [4]; [25]) | Plant response rating, Oat, Wild (oat, wild [7]; Postemergence, 125 g ai/ha) | Plant response rating, Pigweed, Palmer (pigweed, palmer [17]; [25]) | Plant response rating, Barnyardgrass (barnyardgrass [21]; Postemergence, 125 g ai/ha)
45: Plant response rating, Sedge, Umbrella (Flood) (sedge, umbrella)
0: Plant response rating, Rice (Flood) (rice) | Plant response rating, Wheat (wheat [3]; [25]) | Plant response rating, Barnyardgrass (Flood) (barnyardgrass [9]) | Plant response rating, Oat, Wild (oat, wild [23]; [25])
40: Plant response rating, Barnyardgrass (barnyardgrass [13]; [25]) | Plant response rating, Ryegrass, Italian (ryegrass, Italian [15]; [25]) | Oat, Wild plant response rating (oat, wild [23]; [24])
100: Kochia plant response rating (kochia [1]; [24]) | Plant response rating, Galium (galium; 500 g ai/ha, postemergence) | Plant response rating, Galium (galium; Postemergence, 125 g ai/ha) | Plant response rating, Pigweed, Palmer (pigweed, palmer [16]; 500 g ai/ha, postemergence) | Pigweed, Palmer plant response rating (pigweed, palmer [17]; [24]) | Plant response rating, Soybean (soybean [18]) | Foxtail, Green plant response rating (green foxtail [19]; [24])
80: Plant response rating, Corn (corn [2]; 500 g ai/ha, postemergence) | Ragweed plant response rating (ragweed [4]; [24]) | Blackgrass plant response rating (blackgrass [5]; [24]) | Plant response rating, Soybean (soybean [11]; [25]) | Plant response rating, Kochia (kochia [12]; 500 g ai/ha, postemergence) | Plant response rating, Kochia (kochia [12]; Postemergence, 125 g ai/ha) | Plant response rating, Blackgrass (blackgrass [20]; 500 g ai/ha, postemergence)
10: Plant response rating, Corn (corn [8]; [25])
60: Plant response rating, Kochia (kochia [1]; [25]) | Plant response rating, Horseweed (horseweed) | Plant response rating, Blackgrass (blackgrass [5]; [25])
90: Plant response rating, Oat, Wild (oat, wild [7]; 500 g ai/ha, postemergence) | Soybean plant response rating (soybean [11]; [24]) | Plant response rating, Foxtail, Green (green foxtail [14]; 500 g ai/ha, postemergence) | Ryegrass, Italian plant response rating (ryegrass, Italian [15]; [24]) | Plant response rating, Pigweed, Palmer (pigweed, palmer [16]; Postemergence, 125 g ai/ha) | Plant response rating, Foxtail, Green (green foxtail [19]; [25])
50: Wheat plant response rating (wheat [3]; [24]) | Plant response rating, Ryegrass, Italian (ryegrass, Italian [6]) | Corn plant response rating (corn [8]; [24]) | Plant response rating, Foxtail, Green (green foxtail [14]; Postemergence, 125 g ai/ha) | Plant response rating, Ducksalad (Flood) (ducksalad)
